Reference: patent US20090110671A1, “AGENT FOR ENHANCHING THE PRODUCTION OF COLLAGEN AND IT'S USE” (priority 2005, published 2009)

System: flabby skin or skin wrinkles/finely-wrinkles
Assay: Experiment 6: self-evaluation of lotions with AMP and/or CoQ10 on flabby skin or skin wrinkles/finely-wrinkles, three months
Assay type: in vivo, human
Details: lotion, 3 months
Text: Eleven women as volunteers, who had been suffering from skin wrinkles/finely-wrinkles or flabby skin, were allowed to wash their faces with any of the lotions having compositions in Table 5 three times a day for four months and then allowed to evaluate themselves about their face-skin conditions by comparing with those before use of the lotions. […] The influence of a combination use of α,α-trehalose or saccharide derivatives thereof, sodium hyaluronate and/or chondroitin sulfate, and adenosine monophosphate (may be abbreviated as “AMP”, hereinafter) and/or coenzyme Q10 (may be abbreviated as “CoQ10”, hereinafter) on the skin was examined by the following experiment. One hundred parts by weight of respective lotions were prepared by adding to fresh preparations of the same lotion with the basic composition ratio as used in Experiment 5 sodium hyaluronate, chondroitin sulfate, hydrous crystalline α,α-trehalose, a cosmetic grade specimen commercialized by Hayashibara Biochemical Laboratories Inc., Okayama, Japan, and “[…]”, a product name of a syrup having saccharide derivatives of α,α-trehalose commercialized by Hayashibara Biochemical Laboratories Inc., Okayama, Japan, AMP, and CoQ10 according to the combinations and compositions as in Table 6 below. The amounts of added saccharides are represented based on a dry solid basis. The syrup containing saccharide derivatives of α,α-trehalose was added to each lotion to give respective composition ratios as in Table 6. Any of the lotions was allowed to be used every day by 11 females who had been suffering from flabby skin or skin wrinkles/finely-wrinkles, three times a day for three months, and the results were evaluated on flabby skin or skin wrinkles/finely-wrinkles by the method similarly as in Experiment 5.

[1] = saccharide one part by weight + AMP 0.1 + CoQ10 0.1
[2] = saccharide one part by weight + AMP 0.2
[3] = saccharide one part by weight + CoQ10 0.2
[4] = saccharide one part by weight + sodium hyaluronate 0.1 + chondroitin sulfate 0.1 + AMP 0.1 + CoQ10 0.1
[5] = saccharide one part by weight + sodium hyaluronate 0.1 + chondroitin sulfate 0.1 + AMP 0.2
[6] = saccharide one part by weight + sodium hyaluronate 0.1 + chondroitin sulfate 0.1 + CoQ10 0.2
[7] = saccharide one part by weight + sodium hyaluronate 0.1 + chondroitin sulfate 0.1
[8] = saccharide one part by weight alone, 3 times a day

SMILES: OC[C@H]1O[C@H](O[C@H]2O[C@H](CO)[C@@H](O)[C@H](O)[C@H]2O)[C@H](O)[C@@H](O)[C@@H]1O [α,α-trehalose]
- Evaluation A (remarkably efficacious) [1]: 2 number of volunteers
- Evaluation B (efficacious) [1]: 3 number of volunteers
- Evaluation C (slightly efficacious) [1]: 5 number of volunteers
- Evaluation D (inefficacious) [1]: 1 number of volunteers
- Evaluation A (remarkably efficacious) [2]: 2 number of volunteers
- Evaluation B (efficacious) [2]: 2 number of volunteers
- Evaluation C (slightly efficacious) [2]: 6 number of volunteers
- Evaluation D (inefficacious) [2]: 1 number of volunteers
- Evaluation A (remarkably efficacious) [3]: 1 number of volunteers
- Evaluation B (efficacious) [3]: 3 number of volunteers
- Evaluation C (slightly efficacious) [3]: 6 number of volunteers
- Evaluation D (inefficacious) [3]: 1 number of volunteers
- Evaluation A (remarkably efficacious) [4]: 5 number of volunteers
- Evaluation B (efficacious) [4]: 5 number of volunteers
- Evaluation C (slightly efficacious) [4]: 1 number of volunteers
- Evaluation D (inefficacious) [4]: 0 number of volunteers
- Evaluation A (remarkably efficacious) [5]: 3 number of volunteers
- Evaluation B (efficacious) [5]: 4 number of volunteers
- Evaluation C (slightly efficacious) [5]: 4 number of volunteers
- Evaluation D (inefficacious) [5]: 0 number of volunteers
- Evaluation A (remarkably efficacious) [6]: 4 number of volunteers
- Evaluation B (efficacious) [6]: 3 number of volunteers
- Evaluation C (slightly efficacious) [6]: 4 number of volunteers
- Evaluation D (inefficacious) [6]: 0 number of volunteers
- Evaluation A (remarkably efficacious) [7]: 2 number of volunteers
- Evaluation B (efficacious) [7]: 4 number of volunteers
- Evaluation C (slightly efficacious) [7]: 4 number of volunteers
- Evaluation D (inefficacious) [7]: 1 number of volunteers
- Evaluation A (remarkably efficacious) [8]: 1 number of volunteers
- Evaluation B (efficacious) [8]: 2 number of volunteers
- Evaluation C (slightly efficacious) [8]: 6 number of volunteers
- Evaluation D (inefficacious) [8]: 2 number of volunteers
